Laboratory results as given in the NIST ThermoML archive (doi:10.1016/j.jct.2018.11.014).

Assay: molar heat capacity at constant pressure
Conditions: 101.33 kPa, Crystal, Vacuum adiabatic calorimetry

O=C(CO)[C@H](O)[C@H](O)[C@H](O)CO [D-psicose]
Conditions | molar heat capacity at constant pressure [J/K/mol]
10 K | 1.06
13.99 K | 3.375
14.02 K | 3.439
14.28 K | 3.64
14.4 K | 3.754
14.66 K | 3.847
14.86 K | 4.085
15.13 K | 4.198
15.37 K | 4.483
15.64 K | 4.671
15.88 K | 4.798
16.15 K | 5.026
16.39 K | 5.238
16.66 K | 5.478
16.87 K | 5.647
17.18 K | 5.894
17.36 K | 6.237
17.71 K | 6.348
17.89 K | 6.508
18.23 K | 6.844
18.41 K | 6.995
18.75 K | 7.275
18.93 K | 7.521
19.28 K | 7.752
19.46 K | 7.915
19.8 K | 8.239
19.98 K | 8.416
20 K | 8.42
20.3 K | 8.666
20.5 K | 8.908
20.83 K | 9.202
21.03 K | 9.391
21.37 K | 9.657
21.57 K | 9.861
21.92 K | 10.24
22.13 K | 10.42
22.49 K | 10.72
22.7 K | 10.96
23.05 K | 11.3
23.26 K | 11.48
23.62 K | 11.82
23.81 K | 12.26
24.15 K | 12.34
24.36 K | 12.54
24.65 K | 12.88
24.9 K | 13.06
25.16 K | 13.34
25.45 K | 13.61
25.69 K | 13.83
26.02 K | 14.15
26.24 K | 14.43
26.59 K | 14.76
26.81 K | 14.99
27.15 K | 15.34
27.39 K | 15.49
27.7 K | 15.88
27.98 K | 16.13
28.26 K | 16.42
28.56 K | 16.7
28.82 K | 16.95
29.15 K | 17.31
29.37 K | 17.41
29.75 K | 17.78
29.95 K | 18.06
30 K | 18.07
30.36 K | 18.41
30.55 K | 18.62
31.01 K | 19.02
31.16 K | 19.16
31.66 K | 19.69
31.8 K | 19.88
32.32 K | 20.31
32.46 K | 20.43
32.98 K | 20.91
33.13 K | 21.09
33.66 K | 21.61
33.8 K | 21.78
34.35 K | 22.21
34.48 K | 22.3
35.05 K | 22.92
35.17 K | 22.97
35.76 K | 23.59
35.88 K | 23.74
36.48 K | 24.27
36.63 K | 24.38
37.21 K | 24.86
37.36 K | 25.09
37.96 K | 25.64
38.08 K | 25.78
38.67 K | 26.21
38.81 K | 26.52
39.35 K | 26.89
39.58 K | 27.16
40 K | 27.53
40.05 K | 27.63
40.43 K | 27.95
40.77 K | 28.11
41.28 K | 28.77
41.49 K | 28.95
42.02 K | 29.4
42.23 K | 29.59
42.78 K | 30.13
42.98 K | 30.25
43.57 K | 30.79
43.74 K | 30.97
44.37 K | 31.59
44.52 K | 31.66
45.16 K | 32.25
45.3 K | 32.35
45.96 K | 33.05
46.09 K | 33.04
46.74 K | 33.72
46.88 K | 33.8
47.53 K | 34.42
47.68 K | 34.54
48.33 K | 35.15
48.49 K | 35.21
49.13 K | 35.86
49.31 K | 35.98
49.94 K | 36.62
50 K | 36.64
50.14 K | 36.77
50.75 K | 37.33
51.57 K | 38.05
52.37 K | 38.74
53.17 K | 39.44
53.96 K | 40.14
54.75 K | 40.85
55.53 K | 41.56
56.33 K | 42.23
57.14 K | 42.92
57.94 K | 43.52
58.76 K | 44.3
59.58 K | 45.03
60 K | 45.42
60.41 K | 45.79
61.24 K | 46.57
62.08 K | 47.21
62.92 K | 47.95
63.78 K | 48.66
64.64 K | 49.47
65.5 K | 50.22
66.42 K | 50.91
67.38 K | 51.71
68.32 K | 52.51
69.24 K | 53.27
70 K | 53.92
70.15 K | 54.04
71.1 K | 54.88
72.09 K | 55.67
73.08 K | 56.51
74.09 K | 57.32
75.11 K | 58.14
76.17 K | 59.03
77.3 K | 59.96
78.43 K | 60.89
79.19 K | 61.65
79.55 K | 61.8
80 K | 62.17
80.16 K | 62.27
80.67 K | 62.64
81.12 K | 63.07
81.85 K | 63.65
82.06 K | 63.87
82.72 K | 64.37
83.04 K | 64.72
83.07 K | 64.59
83.74 K | 65.19
84.05 K | 65.44
84.3 K | 65.6
84.74 K | 66.03
85.05 K | 66.26
85.58 K | 66.72
85.73 K | 66.8
86.07 K | 67.06
86.71 K | 67.55
86.87 K | 67.6
87.09 K | 67.95
87.73 K | 68.44
88.15 K | 68.72
88.2 K | 68.72
88.8 K | 69.22
89.24 K | 69.63
89.57 K | 69.81
89.88 K | 70.11
90 K | 70.2
90.32 K | 70.45
90.92 K | 70.89
90.95 K | 70.98
91.39 K | 71.33
92.01 K | 71.78
92.24 K | 71.95
92.44 K | 72.09
93.1 K | 72.72
93.53 K | 73.06
93.55 K | 72.93
94.22 K | 73.58
94.64 K | 73.83
94.9 K | 74.01
95.33 K | 74.47
95.76 K | 74.71
96.28 K | 75.12
96.44 K | 75.31
96.92 K | 75.66
97.56 K | 76.24
97.64 K | 76.12
98.12 K | 76.55
98.71 K | 77.11
98.99 K | 77.22
99.36 K | 77.58
99.92 K | 78.04
100 K | 78.04
100.32 K | 78.22
100.64 K | 78.58
101.13 K | 78.97
101.68 K | 79.27
101.91 K | 79.49
102.33 K | 79.86
103.08 K | 80.34
103.16 K | 80.4
103.51 K | 80.73
104.4 K | 81.45
104.47 K | 81.42
104.73 K | 81.75
105.67 K | 82.37
105.83 K | 82.47
105.97 K | 82.66
106.98 K | 83.32
107.19 K | 83.5
107.21 K | 83.56
108.27 K | 84.28
108.43 K | 84.6
108.57 K | 84.51
109.54 K | 85.27
109.64 K | 85.41
109.99 K | 85.61
110 K | 85.65
110.81 K | 86.25
110.88 K | 86.33
111.39 K | 86.67
112.1 K | 87.19
112.15 K | 87.32
112.78 K | 87.7
113.41 K | 88.29
113.43 K | 88.23
114.16 K | 88.71
114.66 K | 89.15
114.74 K | 89.18
115.57 K | 89.78
115.89 K | 90.08
116.04 K | 90.2
117.01 K | 90.83
117.16 K | 91.03
117.33 K | 91.11
118.44 K | 91.9
118.47 K | 92.11
118.65 K | 92.13
119.8 K | 92.98
119.86 K | 92.95
120 K | 93.09
120.39 K | 93.31
121.11 K | 93.95
121.28 K | 94.01
121.69 K | 94.22
122.42 K | 94.92
122.77 K | 95.15
